# Test results from ChEMBL document CHEMBL1150736, “Potential inhibitors of platelet aggregation from plant sources, III” (1987).
# Activity calls are given as the source filed them. The calls are words filed in the database; no cut-off is given here.
# Tests used:
# Type in all cases: functional
# Platelet [1] = assay: Antiplatelet activity against rat platelet rich plasma assessed as inhibition of arachidonic acid-induced platelet aggregation at 0.25 mg/ml pretreated 2 mins before arachidonic acid challenge
# Platelet [2] = assay: Antiplatelet activity against rat platelet rich plasma assessed as inhibition of collagen-induced platelet aggregation at 0.25 mg/ml pretreated 2 mins before collagen challenge
# Platelet [3] = assay: Antiplatelet activity against rat platelet rich plasma assessed as inhibition of ADP-induced platelet aggregation at 1 mg/ml pretreated 2 mins before ADP challenge
# Platelet [4] = assay: Antiplatelet activity against rat platelet rich plasma assessed as inhibition of arachidonic acid-induced platelet aggregation at 0.5 mg/ml pretreated 2 mins before arachidonic acid challenge
# [5] = Antiplatelet activity against rat platelet rich plasma assessed as inhibition of ADP-induced platelet aggregation pretreated 2 mins before ADP challenge
# [6] = Antiplatelet activity against rat platelet rich plasma assessed as inhibition of arachidonic acid-induced platelet aggregation pretreated 2 mins before arachidonic acid challenge
# [7] = Antiplatelet activity against rat platelet rich plasma assessed as inhibition of collagen-induced platelet aggregation pretreated 2 mins before collagen challenge
# Platelet [8] = assay: Antiplatelet activity against rat platelet rich plasma assessed as inhibition of collagen-induced platelet aggregation at 0.05 mg/ml pretreated 2 mins before collagen challenge
# Platelet [9] = assay: Antiplatelet activity against rat platelet rich plasma assessed as inhibition of arachidonic acid-induced platelet aggregation at 0.1 mg/ml pretreated 2 mins before arachidonic acid challenge
# Platelet [10] = assay: Antiplatelet activity against rat platelet rich plasma assessed as inhibition of collagen-induced platelet aggregation at 0.1 mg/ml pretreated 2 mins before collagen challenge
# Platelet [11] = assay: Antiplatelet activity against rat platelet rich plasma assessed as inhibition of ADP-induced platelet aggregation at 0.5 mg/ml pretreated 2 mins before ADP challenge
Structure (SMILES),Activity (Platelet [1]),Activity (Platelet [2]),Activity (Platelet [3]),Activity (Platelet [4]),other results
COc1ccc(O)c(C(=O)O)c1,inactive,Active,Active,,
COc1ccc(C(=O)O)c(OC)c1,,Active,Active,Active,
COc1cccc(C(=O)O)c1O,,,Active,Active,
CC(=O)Oc1ccccc1C(=O)O [ASPIRIN],Active,Active,Active,Active,Activity [5]: 5.6 mM; Activity [6]: 2.8 ×10⁻⁴ M; Activity [7]: 1.4 mM; Activity (Platelet [8]): inactive; Activity (Platelet [9]): Active
COc1ccc(C(=O)O)cc1O,inactive,,Active,Active,
COC(=O)c1ccc(O)c(OC)c1,Active,Active,Active,Active,Activity (Platelet [10]): Active
COC(=O)c1ccc(OC)cc1O,inactive,Active,,,Activity (Platelet [11]): inactive
O=C(O)c1c(O)cccc1O,,Active,,Active,
COc1cc(C(=O)O)ccc1O,inactive,Active,Active,Active,
COc1cc(CC(=O)O)ccc1O,Active,,Active,,
O=C(O)c1cc(O)ccc1O,,Active,Active,Active,
CCOc1ccc(C(=O)O)cc1OCC,inactive,inactive,Active,Active,Activity (Platelet [10]): inactive
COC(=O)c1cc(O)cc(O)c1,Active,Active,Active,Active,Activity (Platelet [9]): Active
COc1ccc(C(=O)O)cc1OC,inactive,,,,Activity (Platelet [11]): inactive
COC(=O)c1ccc(OC)c(OC)c1,Active,Active,,Active,Activity (Platelet [10]): Active
COC(=O)c1cc(OC)cc(OC)c1,,Active,,Active,

Structure (SMILES),Activity (Platelet [1]),Activity (Platelet [2]),Activity (Platelet [3]),Activity (Platelet [4]),other results
CCOC(=O)c1cccc(O)c1O,Active,,Active,Active,
O=C(O)c1ccc(O)cc1O,Active,Active,Active,Active,Activity (Platelet [9]): Active; Activity (Platelet [10]): Active
CCOC(=O)c1cc(O)cc(O)c1,,,Active,Active,
COc1cccc(C(=O)O)c1OC,inactive,Active,Active,inactive,
COC(=O)c1cccc(O)c1O,Active,,Active,Active,
O=C(O)c1ccc(O)c(O)c1 [PROTOCATECHUIC ACID],,Active,Active,Active,Activity [5]: 6.5 mM; Activity [6]: 3.2 mM; Activity [7]: 1.6 mM
COc1ccc(C(=O)O)c(O)c1,,Active,,Active,
CCOC(=O)c1ccc(O)c(O)c1,Active,Active,Active,Active,Activity [5]: 2.7 mM; Activity [6]: 5.5 ×10⁻⁴ M; Activity [7]: 1.4 mM; Activity (Platelet [11]): Active; Activity (Platelet [9]): Active
COc1cccc(OC)c1C(=O)O,inactive,Active,,,
O=C(O)c1cccc(O)c1O,Active,Active,Active,Active,
O=C(O)c1cc(O)cc(O)c1,,Active,Active,Active,
COC(=O)c1ccc(O)cc1O,Active,,Active,Active,
CCOC(=O)c1ccc(O)cc1O,Active,,Active,Active,
COC(=O)c1ccc(O)c(O)c1,Active,,Active,Active,
COc1cc(OC)cc(C(=O)O)c1,,inactive,,,Activity (Platelet [11]): inactive; Activity (Platelet [10]): inactive
